According to paper PMC12040169 (PLOS Biology, 2025):
Several values for one entry are separate records, joined by “and”; a condition that tells them apart may be missing. Identical values can stand only once.

Tests used:
in vitro = conditions: human, hela cells, % viability
HeLa = conditions: bulk resorufin, single well, 28.5 h, 10 µM, Bulk resorufin fluorescence

CCOC(=O)c1c(NS(=O)(=O)c2ccc(NC(C)=O)cc2)sc2c1CCCC2 [CBK004658]
viability at 28.5 h, 10 µM (in vitro): 90.3% | % viability (HeLa): 99.8%

Nc1nc(Nc2ccccc2)nc(C(F)(F)F)n1 [CBK004712]
viability at 28.5 h, 10 µM (in vitro): 89.8% | % viability (HeLa): 72%

O=[N+]([O-])c1c(-c2cn[nH]c2)n[nH]c1-c1cn[nH]c1 [CBK008388]
viability at 28.5 h, 10 µM (in vitro): 86.2% | % viability (HeLa): 93.4%

CCN(CC)c1ccc2cc(/C(C)=N/O)c(=O)oc2c1 [CBK009063]
% viability (HeLa): 108% and 84.7%

CC(=O)NC[C@H]1CN(c2ccc(-c3cc4ccccc4n3C(=O)OC(C)(C)C)c(F)c2)C(=O)O1 [CBK011849]
viability at 28.5 h, 10 µM (in vitro): 98.1% | % viability (HeLa): 82.6%

Cc1cn(C2CC(O)C(CO)O2)c(=S)[nH]c1=O (stereo not drawn) [CBK012339]
% viability (HeLa): 112% and 90.8%

O=C(O)Cc1cc(C(=O)/C=C/c2c(Cl)cccc2Cl)ccc1O [CBK013106]
viability at 28.5 h, 10 µM (in vitro): 99% | % viability (HeLa): 100%

S=c1[nH]nc(-c2sc3ccccc3c2Cl)[nH]1 [CBK013698]
viability at 28.5 h, 10 µM (in vitro): 96.3% | % viability (HeLa): 90.2%

O=C(Nc1nc[nH]n1)NC1CCCCC1 [CBK017342]
% viability (HeLa): 119% and 94.5%

CC(C)c1n[nH]c2c1/C(=N\N)c1ccccc1-2 [CBK017384]
viability at 28.5 h, 10 µM (in vitro): 85.4% | % viability (HeLa): 73.8%

CS(=O)(=O)Nc1ccc2[nH]c(=O)c(C(=O)NCc3ccc(Cl)cc3)cc2c1 [CBK017560]
viability at 28.5 h, 10 µM (in vitro): 97.9% | % viability (HeLa): 102%

CCCO/N=C\c1ccc(-n2cnnc2)cc1 [CBK018921]
% viability (HeLa): 77.5% and 99.8%

COc1ccc(-n2ccc(=O)c(Cc3c(Cl)cccc3Cl)c2C)cc1 [CBK019186]
viability at 28.5 h, 10 µM (in vitro): 89.2% | % viability (HeLa): 106%

CC1=C/C(=C(\C#N)C(N)=O)NC(c2ccccc2O)=N1 [CBK019764]
viability at 28.5 h, 10 µM (in vitro): 111% | % viability (HeLa): 95.3%

Cc1nc2ccccc2n1C(=O)c1sc2ccccc2c1Cl [CBK020557]
viability at 28.5 h, 10 µM (in vitro): 106% | % viability (HeLa): 115%

O=C(O)/C(SC1=NC2=Nc3ccccc3C2N=N1)=C1/C(=O)Nc2ccccc21 (stereo not drawn) [CBK021943]
viability at 28.5 h, 10 µM (in vitro): 100% | % viability (HeLa): 96%

S=C(Nc1ccc(C2=NCCO2)cc1)Nc1ccc(Cl)c(Cl)c1 [CBK022344]
viability at 28.5 h, 10 µM (in vitro): 90.6% | % viability (HeLa): 106%

CNC1=NC2CCCCC2O1 (stereo not drawn) [CBK023075F]
viability at 28.5 h, 10 µM (in vitro): 117% | % viability (HeLa): 111%

O=C(O)c1c(NS(=O)(=O)c2ccc(Oc3ccccc3)cc2)sc2c1CCCC2 [CBK024820]
viability at 28.5 h, 10 µM (in vitro): 101% | % viability (HeLa): 106%

CC(=O)NC(NS(=O)(=O)c1ccccc1)(C(F)(F)F)C(F)(F)F [CBK025820]
viability at 28.5 h, 10 µM (in vitro): 98.4% | % viability (HeLa): 92.5%

CC1=CC(C)C(C(=O)O)C(C(=O)N2CCN(C)CC2)C1 (stereo not drawn) [CBK027311]
% viability (HeLa): 102%

Brc1ccc(CSc2nc[nH]n2)cc1 [CBK027819]
% viability (HeLa): 98.5%

COCCn1cnc2sc(C(=O)NCc3ccccc3OC)c(C)c2c1=O [CBK071862]
% viability (HeLa): 95.1% and 64.7%

Clc1ccc(COc2nccnc2OC2CCN(CC3CC3)CC2)cc1Cl [CBK083123]
% viability (HeLa): 104%

O=C(O)c1cc(S(=O)(=O)NCc2ccco2)c(Cl)cc1Cl [CBK113171]
% viability (HeLa): 107% and 83.2%

Cc1cc(CC(=O)N2CCCC3(CCN(C(=O)c4ccoc4)C3)C2)on1 (stereo not drawn) [CBK131628]
% viability (HeLa): 106% and 82.1%
